Here are results for twelve compounds from BindingDB's records for PubMed 2139469 (University of Nebraska, 1990).

The assay has as its target D(1A) dopamine receptor (Bos taurus, UniProt Q95136).

Molecules are shown by their SMILES. Structures can show the parent of a compound that is named as a salt. Where only a bound is given, the exact number is not on record here.

Sequence of D(1A) dopamine receptor (Q95136 whole entry): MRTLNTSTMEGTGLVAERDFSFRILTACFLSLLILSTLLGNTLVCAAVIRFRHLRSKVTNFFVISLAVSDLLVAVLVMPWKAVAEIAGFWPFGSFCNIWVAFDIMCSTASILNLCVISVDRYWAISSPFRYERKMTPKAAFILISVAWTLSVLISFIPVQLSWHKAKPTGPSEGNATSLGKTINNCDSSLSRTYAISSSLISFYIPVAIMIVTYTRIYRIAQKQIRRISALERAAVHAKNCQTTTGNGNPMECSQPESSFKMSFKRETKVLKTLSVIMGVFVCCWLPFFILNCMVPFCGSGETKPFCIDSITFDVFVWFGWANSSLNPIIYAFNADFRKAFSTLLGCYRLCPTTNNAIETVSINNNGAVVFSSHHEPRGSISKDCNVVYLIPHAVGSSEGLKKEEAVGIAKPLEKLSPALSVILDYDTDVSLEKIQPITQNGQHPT

As for `Cc1ccc(N(CC2=NCCN2)c2cccc(O)c2)cc1` [SMR000059054], the Ki (usually the dissociation constant of the complex between target and ligand, obtained from inhibition or displacement) is greater than 10000 nM.

The compound `O=c1[nH]c2ccccc2n1CCCN1CCC(n2c(=O)[nH]c3cc(Cl)ccc32)CC1` gave a Ki of 2040 nM.

In turn, `CC[C@@H](CO)NC(=O)[C@@H]1C=C2c3cccc4c3c(cn4C)C[C@H]2N(C)C1` showed a Ki of 1580 nM.

In the case of `C=CCN1CC[C@]23c4c5ccc(O)c4O[C@H]2C(=O)CC[C@@]3(O)[C@H]1C5` [[17-(2,3-3H-2-propenyl)]-4,5a-epoxy-3,14-dihydroxymorphinan-6-one], the Ki was greater than 10000 nM.

For `O=C(c1ccc(F)cc1)C1CCN(CCn2c(=O)[nH]c3ccccc3c2=O)CC1` [3-(2-{4-[(4-fluorophenyl)carbonyl]piperidin-1-yl}ethyl)-1,2,3,4-tetrahydroquinazoline-2,4-dione], the Ki turned out to be 395 nM.

For the compound `O=C(CCCN1CCC(O)(c2ccc(Cl)cc2)CC1)c1ccc(F)cc1` [4-[4-(4-Chloro-phenyl)-4-hydroxy-piperidin-1-yl]-1-(4-fluoro-phenyl)-butan-1-one;propionate(HCl)], the affinity corresponds to a Ki of 315 nM.

Turning to `CN1[C@@H]2CC[C@H]1CC(OC(=O)[C@H](CO)c1ccccc1)C2` (some centres not stated) [CAS_51-55-8], the Ki was greater than 10000 nM.

Take `CSc1ccc2c(c1)N(CC[C@@H]1CCCCN1C)c1ccccc1S2` [10-[2-(1-Methyl-piperidin-2-yl)-ethyl]-2-methylsulfanyl-10H-phenothiazine (thioridazine)]: affinity was put at a Ki of 75.4 nM.

On to `OCCC1CCN(CC/C=C2/c3ccc(F)cc3Sc3ccc(C(F)(F)F)cc32)CC1` [Lu 12-331], for which the Ki was 0.29 nM.

`CN(C)CCCSc1ccccc1NC(=O)/C=C/c1ccccc1` [CINANSERIN] showed a Ki of 2090 nM.

As for `CCN1CCCC1CNC(=O)c1cc(S(N)(=O)=O)ccc1OC` (configuration not stated) [N-[(1-ethylpyrrolidin-2-yl)methyl]-2-methoxy-5-sulfamoylbenzamide], the Ki was greater than 10000 nM.

As for `CN1CCN2c3ccccc3Cc3ccccc3[C@H]2C1` [MIANSERIN (+)], affinity was put at a Ki of 318 nM.
